Measured values reported in publication PMC12648101, “Targeting SARS-CoV-2 main protease for the discovery of a broad-spectrum COVID-19 inhibitor by intensive multi-tiered validation” (Acta Pharmaceutica Sinica. B, 2025).
Like-named read-outs stand apart in the source and are kept apart here.

Tested on: SARS-CoV-2 strains and variants (wild-type, Delta, Omicron BA.1.1, BA.2.3, BA.4, BA.5)
Assay: Antiviral CPE assay in Vero E6 cells, summary over all tested strains
Assay type: cell-based
Conditions: Severe acute respiratory syndrome coronavirus 2, Vero C1008

## O=C(O)C[C@@H]1C(=O)O[C@H]2[C@@H]3OC(=O)c4cc(O)c(O)c(O)c4-c4c(cc(O)c(O)c4O)C(=O)OC[C@H]2O[C@@H](OC(=O)c2cc(O)c(O)c(O)c2)[C@@H]3OC(=O)c2cc(O)c(O)c3c2[C@H]1[C@H](O)C(=O)O3 [CHLA, chebulagic acid]
read-out: EC50 values against a range of SARS-CoV-2 variants
  EC50: < 2000 nM

## CC(C)(C)[C@H](NC(=O)C(F)(F)F)C(=O)N1C[C@H]2[C@@H]([C@H]1C(=O)N[C@H](C#N)C[C@@H]1CCNC1=O)C2(C)C [PF-07321332, reference compound]
read-out: EC50 for the tested SARS-CoV-2 strains and variants
  EC50: ~50 nM
